From ChEMBL document CHEMBL1145592, “Pleuromutilin derivatives having a purine ring. Part 1: new compounds with promising antibacterial activity against resistant Gram-positive pathogens” (2008)
In brackets after ≈: the same amount, converted by molar mass.

Key:
Type in all cases: functional
Staphylococcus aureus [1] = assay: Antibacterial activity against methicillin-susceptible Staphylococcus aureus Smith
Staphylococcus aureus [2] = assay: Antibacterial activity against methicillin-resistant Staphylococcus aureus KMP9
Streptococcus pneumoniae [3] = assay: Antibacterial activity against penicillin-susceptible Streptococcus pneumoniae 1
Enterococcus faecium = assay: Antibacterial activity against vancomycin-resistant Enterococcus faecium KU1778
Staphylococcus aureus [4] = assay: Antibacterial activity against methicillin-susceptible Staphylococcus aureus Smith infected iv dosed mouse 1 hr after inoculation
Streptococcus pneumoniae [5] = assay: Antibacterial activity against penicillin-susceptible Streptococcus pneumoniae ATCC 49619
Streptococcus pneumoniae [6] = assay: Antibacterial activity against penicillin-resistant Streptococcus pneumoniae KT2524
Streptococcus pyogenes = assay: Antibacterial activity against Streptococcus pyogenes ATCC 12344
Moraxella catarrhalis = assay: Antibacterial activity against Moraxella catarrhalis K1209
Haemophilus influenzae = assay: Antibacterial activity against Haemophilus influenzae TH13
Staphylococcus aureus [7] = assay: Antibacterial activity against methicillin-susceptible Staphylococcus aureus Smith infected twice iv dosed mouse 1 and 4 hrs after inoculation

Structure (SMILES)	MIC (Staphylococcus aureus [1])	MIC (Staphylococcus aureus [2])	MIC (Streptococcus pneumoniae [3])	MIC (Enterococcus faecium)	ED50 (Staphylococcus aureus [4])	MIC (Streptococcus pneumoniae [5])	MIC (Streptococcus pneumoniae [6])	MIC (Streptococcus pyogenes)	MIC (Moraxella catarrhalis)	MIC (Haemophilus influenzae)	ED50 (Staphylococcus aureus [7])
C=C[C@]1(C)C[C@@H](OC(=O)CSC2CCN(C(=O)CCn3cnc4c(N5CCOCC5)nc(N)nc43)CC2)[C@]2(C)[C@H](C)CC[C@]3(CCC(=O)[C@@H]32)[C@@H](C)[C@@H]1O	0.2 µg/mL (≈ 0.266 µM)	0.2 µg/mL (≈ 0.266 µM)	0.1 µg/mL (≈ 0.133 µM)	0.2 µg/mL (≈ 0.266 µM)	–	–	–	–	–	–	–
C=C[C@]1(C)C[C@@H](OC(=O)CSC2CCN(C(=O)CCn3cnc4cnc(N)nc43)CC2)[C@]2(C)[C@H](C)CC[C@]3(CCC(=O)[C@@H]32)[C@@H](C)[C@@H]1O	0.05 µg/mL (≈ 0.075 µM)	0.05 µg/mL (≈ 0.075 µM)	0.05 µg/mL (≈ 0.075 µM)	0.05 µg/mL (≈ 0.075 µM)	< 3.13 mg/kg	0.125 µg/mL (≈ 0.187 µM)	0.063 µg/mL (≈ 0.0945 µM)	0.063 µg/mL (≈ 0.0945 µM)	0.25 µg/mL (≈ 0.375 µM)	2 µg/mL (≈ 3 µM)	–
C=C[C@]1(C)C[C@@H](OC(=O)CSC2CCN(C(=O)CCn3cnc4c(N)ncnc43)CC2)[C@]2(C)[C@H](C)CC[C@]3(CCC(=O)[C@@H]32)[C@@H](C)[C@@H]1O	0.2 µg/mL (≈ 0.3 µM)	0.39 µg/mL (≈ 0.585 µM)	0.78 µg/mL (≈ 1.17 µM)	0.39 µg/mL (≈ 0.585 µM)	> 3.13 mg/kg	–	–	–	–	–	–
C=C[C@]1(C)C[C@@H](OC(=O)CSC2CCN(C(=O)Cn3cnc4cncnc43)CC2)[C@]2(C)[C@H](C)CC[C@]3(CCC(=O)[C@@H]32)[C@@H](C)[C@@H]1O	0.2 µg/mL (≈ 0.314 µM)	0.2 µg/mL (≈ 0.314 µM)	1.56 µg/mL (≈ 2.45 µM)	0.2 µg/mL (≈ 0.314 µM)	–	–	–	–	–	–	–
C=C[C@]1(C)C[C@@H](OC(=O)CSC2CCN(C(=O)CCn3cnc4c(NC)nc(N)nc43)CC2)[C@]2(C)[C@H](C)CC[C@]3(CCC(=O)[C@@H]32)[C@@H](C)[C@@H]1O	0.1 µg/mL (≈ 0.144 µM)	0.2 µg/mL (≈ 0.287 µM)	0.025 µg/mL (≈ 0.0359 µM)	0.1 µg/mL (≈ 0.144 µM)	> 3.13 mg/kg	–	–	–	–	–	–
C=C[C@]1(C)C[C@@H](OC(=O)CSC2CCN(C(=O)CCn3cnc4c(N)nc(N)nc43)CC2)[C@]2(C)[C@H](C)CC[C@]3(CCC(=O)[C@@H]32)[C@@H](C)[C@@H]1O	0.05 µg/mL (≈ 0.0733 µM)	0.1 µg/mL (≈ 0.147 µM)	0.025 µg/mL (≈ 0.0367 µM)	0.05 µg/mL (≈ 0.0733 µM)	> 3.13 mg/kg	–	–	–	–	–	–
C=C[C@]1(C)C[C@@H](OC(=O)CSC2CCN(C(=O)CCCn3cnc4cnc(N)nc43)CC2)[C@]2(C)[C@H](C)CC[C@]3(CCC(=O)[C@@H]32)[C@@H](C)[C@@H]1O	0.1 µg/mL (≈ 0.147 µM)	0.2 µg/mL (≈ 0.294 µM)	0.78 µg/mL (≈ 1.15 µM)	0.1 µg/mL (≈ 0.147 µM)	> 3.13 mg/kg	–	–	–	–	–	–
CC[C@]1(C)C[C@@H](OC(=O)CSc2nnc(N)[nH]2)[C@]2(C)[C@H](C)CC[C@]3(CCC(=O)[C@@H]32)[C@@H](C)[C@@H]1O	0.5 µg/mL (≈ 1.04 µM)	2 µg/mL (≈ 4.18 µM)	–	0.25 µg/mL (≈ 0.522 µM)	–	0.5 µg/mL (≈ 1.04 µM)	0.5 µg/mL (≈ 1.04 µM)	0.25 µg/mL (≈ 0.522 µM)	0.032 µg/mL (≈ 0.0669 µM)	0.5 µg/mL (≈ 1.04 µM)	6.88 mg/kg
C=C[C@]1(C)C[C@@H](OC(=O)CSC2CCN(C(=O)/C=C/n3cnc4cnc(N)nc43)CC2)[C@]2(C)[C@H](C)CC[C@]3(CCC(=O)[C@@H]32)[C@@H](C)[C@@H]1O	0.1 µg/mL (≈ 0.15 µM)	0.2 µg/mL (≈ 0.301 µM)	0.39 µg/mL (≈ 0.587 µM)	0.2 µg/mL (≈ 0.301 µM)	> 3.13 mg/kg	–	–	–	–	–	–
C=C[C@]1(C)C[C@@H](OC(=O)CSC2CCN(C(=O)CCn3cnc4c(N(C)C)nc(N)nc43)CC2)[C@]2(C)[C@H](C)CC[C@]3(CCC(=O)[C@@H]32)[C@@H](C)[C@@H]1O	0.1 µg/mL (≈ 0.141 µM)	0.1 µg/mL (≈ 0.141 µM)	0.05 µg/mL (≈ 0.0704 µM)	0.1 µg/mL (≈ 0.141 µM)	> 3.13 mg/kg	–	–	–	–	–	–
C=C[C@]1(C)C[C@@H](OC(=O)CSC2CCN(C(=O)CCn3cnc4c(N5CCCC5)nc(N)nc43)CC2)[C@]2(C)[C@H](C)CC[C@]3(CCC(=O)[C@@H]32)[C@@H](C)[C@@H]1O	0.39 µg/mL (≈ 0.53 µM)	0.39 µg/mL (≈ 0.53 µM)	0.2 µg/mL (≈ 0.272 µM)	0.39 µg/mL (≈ 0.53 µM)	> 3.13 mg/kg	–	–	–	–	–	–
C=C[C@]1(C)C[C@@H](OC(=O)CSC2CCN(C(=O)CCn3cnc4c(N5CCNCC5)nc(N)nc43)CC2)[C@]2(C)[C@H](C)CC[C@]3(CCC(=O)[C@@H]32)[C@@H](C)[C@@H]1O	0.25 µg/mL (≈ 0.333 µM)	0.5 µg/mL (≈ 0.666 µM)	0.063 µg/mL (≈ 0.0839 µM)	0.25 µg/mL (≈ 0.333 µM)	< 3.13 mg/kg	0.063 µg/mL (≈ 0.0839 µM)	0.063 µg/mL (≈ 0.0839 µM)	0.032 µg/mL (≈ 0.0426 µM)	0.25 µg/mL (≈ 0.333 µM)	1 µg/mL (≈ 1.33 µM)	1.51 mg/kg
C=C[C@]1(C)C[C@@H](OC(=O)CSC2CCN(C(=O)CCn3cnc4cncnc43)CC2)[C@]2(C)[C@H](C)CC[C@]3(CCC(=O)[C@@H]32)[C@@H](C)[C@@H]1O	0.05 µg/mL (≈ 0.0767 µM)	0.05 µg/mL (≈ 0.0767 µM)	0.1 µg/mL (≈ 0.153 µM)	0.05 µg/mL (≈ 0.0767 µM)	> 3.13 mg/kg	–	–	–	–	–	–
C=C[C@]1(C)C[C@@H](OC(=O)CSC2CCN(C(=O)CCn3cnc4ncncc43)CC2)[C@]2(C)[C@H](C)CC[C@]3(CCC(=O)[C@@H]32)[C@@H](C)[C@@H]1O	0.1 µg/mL (≈ 0.153 µM)	0.1 µg/mL (≈ 0.153 µM)	0.1 µg/mL (≈ 0.153 µM)	0.1 µg/mL (≈ 0.153 µM)	> 3.13 mg/kg	–	–	–	–	–	–
C=C[C@]1(C)C[C@@H](OC(=O)CSC2CCN(C(=O)CCn3cnc4c(N5CCC(CNC)C5)nc(N)nc43)CC2)[C@]2(C)[C@H](C)CC[C@]3(CCC(=O)[C@@H]32)[C@@H](C)[C@@H]1O (some centres not stated)	0.5 µg/mL (≈ 0.642 µM)	4 µg/mL (≈ 5.13 µM)	–	0.5 µg/mL (≈ 0.642 µM)	1.01 mg/kg	0.125 µg/mL (≈ 0.16 µM)	0.25 µg/mL (≈ 0.321 µM)	0.032 µg/mL (≈ 0.0411 µM)	0.25 µg/mL (≈ 0.321 µM)	4 µg/mL (≈ 5.13 µM)	–
